Data taken from ChEMBL document CHEMBL1137117, “Cinnamic acid esters as potent inhibitors of fungal 17beta-hydroxysteroid dehydrogenase--a model enzyme of the short-chain dehydrogenase/reductase superfamily” (Bioorg Med Chem Lett, 2004).

How the values were obtained:
Design in all cases: species or system Curvularia lunata
[1] = target: T1, 17-beta-hydroxysteroid-dehydrogenase (Cochliobolus lunatus, UniProt O93874); experiment: Inhibitory activity against 17 beta-hydroxysteroid dehydrogenase catalysed reduction reaction; NI=no inhibition
T1 sequence (O93874 whole entry): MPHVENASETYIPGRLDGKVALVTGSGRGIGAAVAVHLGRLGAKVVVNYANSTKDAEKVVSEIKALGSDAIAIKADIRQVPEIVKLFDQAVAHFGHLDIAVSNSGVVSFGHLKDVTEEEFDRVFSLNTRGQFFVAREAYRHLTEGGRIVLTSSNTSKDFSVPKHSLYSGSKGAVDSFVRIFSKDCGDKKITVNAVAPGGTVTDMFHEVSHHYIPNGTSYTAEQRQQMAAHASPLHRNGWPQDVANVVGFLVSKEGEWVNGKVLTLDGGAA

[2] = target: T1, 17-beta-hydroxysteroid-dehydrogenase; experiment: Inhibitory activity against 17 beta-hydroxysteroid dehydrogenase catalysed oxidation reaction; NI=no inhibition
[3] = target: T1, 17-beta-hydroxysteroid-dehydrogenase; experiment: Inhibitory activity against 17 beta-hydroxysteroid dehydrogenase catalysed oxidation reaction
[4] = target: T1, 17-beta-hydroxysteroid-dehydrogenase; experiment: Inhibitory activity against 17 beta-hydroxysteroid dehydrogenase catalysed reduction reaction

IC50 [1] | IC50 [2] | IC50 [3] [µM] | IC50 [4] | IC50 ([4]; read-out: IC50) [µM] | SMILES
Not Active | Not Active |  |  |  | O=C(OCCN1C(=O)c2ccccc2C1=O)c1cc2ccccc2oc1=O
Not Active |  | 130 |  |  | O=C(/C=C/c1ccccc1)OCc1cccc(Oc2ccccc2)c1
Not Active |  | 14 |  |  | COc1cc(COC(=O)/C=C/c2ccccc2)cc(OC)c1OC
Not Active |  | 10 |  |  | O=C(/C=C/c1ccccc1)OCN1C(=O)c2ccccc2C1=O
 |  | 2.7 |  | 8 | O=C(OCc1ccccc1)c1cc2ccccc2oc1=O
Not Active | Not Active |  |  |  | COc1cc(COC(=O)c2cc3ccccc3oc2=O)cc(OC)c1OC

Continued, molecule first:

SMILES | IC50 [1] | IC50 [2] | IC50 [3] [µM] | IC50 [4] | IC50 ([4]; read-out: IC50) [µM]
COc1cccc(OC(=O)/C=C/c2ccccc2)c1 |  |  | 135 | No inhibition | 
N#Cc1ccc(OC(=O)/C=C/c2ccccc2)cc1 | Not Active |  | 13 |  | 
O=C(/C=C/c1ccccc1)OCCN1C(=O)c2ccccc2C1=O |  |  | 5 |  | 90
CC(=O)Nc1ccc(OC(=O)/C=C/c2ccccc2)cc1 |  |  | > 200 |  | > 200
O=C(/C=C/c1ccccc1)OCc1ccccc1 [BENZYL CINNAMATE] |  |  | 0.7 |  | 7
O=C(/C=C/c1ccccc1)Oc1ccccc1 [PHENYL CINNAMATE] |  |  | 26 |  | > 200
O=C(OCN1C(=O)c2ccccc2C1=O)c1cc2ccccc2oc1=O | Not Active | Not Active |  |  | 
O=C(/C=C/c1ccccc1)Oc1cccc2ccccc12 |  |  | 10 |  | 
CCCCCCCC(=O)Nc1ccc(OC(=O)/C=C/c2ccccc2)cc1 |  |  | > 200 |  | > 200
O=C(/C=C/c1ccccc1)OC1CCCCC1 | Not Active | Not Active |  |  | 
